This test deals with T1, human mAChR M1 (Homo sapiens, UniProt P11229).
T1 construct: host or cells: CHO-K1
T1 sequence (P11229 1-460): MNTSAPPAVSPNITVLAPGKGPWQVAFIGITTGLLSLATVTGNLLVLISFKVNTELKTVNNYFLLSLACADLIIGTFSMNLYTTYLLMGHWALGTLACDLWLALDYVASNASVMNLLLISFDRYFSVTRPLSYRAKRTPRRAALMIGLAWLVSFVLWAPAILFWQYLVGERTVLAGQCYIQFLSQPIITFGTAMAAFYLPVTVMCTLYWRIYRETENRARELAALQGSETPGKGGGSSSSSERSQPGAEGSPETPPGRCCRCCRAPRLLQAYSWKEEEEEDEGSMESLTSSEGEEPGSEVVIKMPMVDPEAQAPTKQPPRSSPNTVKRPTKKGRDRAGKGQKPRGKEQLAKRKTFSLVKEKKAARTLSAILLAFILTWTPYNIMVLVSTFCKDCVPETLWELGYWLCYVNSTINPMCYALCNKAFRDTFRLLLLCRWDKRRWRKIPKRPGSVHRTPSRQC
Description: mAChR M1 cell-based functional assay (calcium mobilization, Fluo-4, FDSS). The note with it: CHO-K1 cells stably expressing hM1; for Emax: EC20 acetylcholine response, read-out: Human M1 Emax; for EC50: positive allosteric modulator activity as increase in the EC20 acetylcholine response. In short, it runs like this: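 CHO-K1 cells stably expressing muscarinic receptor, loaded with Fluo-4; 11-point 1:3 compound series added and calcium flux read over 300 s at 1 Hz. Agonism from direct calcium rise, PAM activity as potentiation of EC20 acetylcholine, antagonism as decrease of EC80 acetylcholine; four-parameter logistic fits.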
For orientation: Calcium assays in cells follow changes in intracellular calcium, usually with a dye or a luminescent sensor.

By Emax is commonly meant the size of the effect at its maximum, as opposed to the concentration needed. The term EC50 denotes the concentration needed to bring the measured effect to its halfway point. Take `Cc1nc(-c2ccc(Cc3cc(C(=O)N[C@H]4CCC[C@@H]4O)nc4c3ccn4C)cc2)co1` [Compound 56, N-[(1S,2S)-2-hydroxycyclopentyl]-1-methy1-4-[[4-(2-methyloxazol-4-yl)phenyl]methyl]pyrrolo[2,3-b]pyridine-6-carboxamide]: the maximal response (Emax) worked out at 84% and the concentration giving a half-maximal response (EC50) was 270 nM.
The corresponding values for `Cc1nc(-c2ccc(Cc3cc(C(=O)N[C@H]4CC[C@@H]4O)nc4c3ccn4C)cc2)co1` [Compound 57, N-[(1S,2S)-2-hydroxycyclobutyl]-1-methy1-4-[[4-(2-methyloxazol-4-yl)phenyl]methyl]pyrrolo[2,3-b]pyridine-6-carboxamide] are 83.6% and 840 nM.
The corresponding values for `Cc1nc(-c2ccc(Cc3cc(C(=O)NCC4CCOCC4)nc4c3ccn4C)cc2)co1` [Compound 58, 1-methyl-4-[[4-(2-methyloxazol-4-yl)phenyl]methyl]-N-(tetrahydropyran-4-ylmethyl)pyrrolo[2,3-b]pyridine-6-carboxamide] are 84.1% and 1050 nM.
The corresponding values for `Cn1ccc2c(Cc3ccc(-c4nccs4)cc3)cc(C(=O)N[C@H]3CCOC[C@@H]3O)nc21` [Compound 59, N-[(3R,4S)-3-hydroxytetrahydropyran-4-yl]-1-methy1-4-[(4-thiazol-2-ylphenyl)methyl]pyrrolo[2,3-b]pyridine-6-carboxamide] are 57.3% and 30 nM.
`Cn1ccc2c(Cc3ccc(-c4nccs4)cc3)cc(C(=O)N[C@H]3CCCC[C@@H]3O)nc21` [Compound 60, N-[(1S,2S)-2-hydroxycyclohexyl]-1-methyl-4-[(4-thiazol-2-ylphenyl)methyl]pyrrolo[2,3-b]pyridine-6-carboxamide]: the maximal response (Emax) is 55.4% and the EC50 worked out at 110 nM.
The corresponding values for `Cn1ccc2c(Cc3ccc(-c4nccs4)cc3)cc(C(=O)NC3CC4(COC4)C3)nc21` [Compound 62, 1-methyl-N-(2-oxaspiro[3.3]heptan-6-yl)-4-[(4-thiazol-2-ylphenyl)methyl]pyrrolo[2,3-b]pyridine-6-carboxamide] are 60.6% and 870 nM.
On the same counts, the results for `Cn1ccc2c(Cc3ccc(-c4nccs4)cc3)cc(C(=O)N[C@H]3CC[C@@H]3O)nc21` [Compound 63, N-[(1S,2S)-2-hydroxycyclobutyl]-1-methyl-4-[(4-thiazol-2-ylphenyl)methyl]pyrrolo[2,3-b]pyridine-6-carboxamide] are 60.4% and 1500 nM.
The corresponding values for `Cn1ccc2c(Cc3ccc(-c4nccs4)cc3)cc(C(=O)N[C@H]3CCC[C@@H]3O)nc21` [Compound 64, N-[(1S,2S)-2-hydroxycyclopentyl]-1-methyl-4-[(4-thiazol-2-ylphenyl)methyl]pyrrolo[2,3-b]pyridine-6-carboxamide] are 57.2% and 33600 nM.
Consider `C[C@@H]1CC(NC(=O)c2cc(Cc3ccc(-c4nccs4)cc3)c3ccn(C)c3n2)C[C@H](C)O1` (stereo partly drawn) [Compound 65, N-[(2S,6R)-2,6-dimethyltetrahydropyran-4-yl]-1-methyl-4-[(4-thiazol-2-ylphenyl)methyl]pyrrolo[2,3-b]pyridine-6-carboxamide], for which the maximal effect (Emax) was 58.6% and the concentration for a half-maximal effect (EC50) is 2780 nM.
The corresponding values for `Cn1ccc2c(Cc3ccc(-c4nccs4)cc3)cc(C(=O)NC3CCOC(C)(C)C3)nc21` (stereo not shown) [Compound 66, N-(2,2-dimethyltetrahydropyran-4-yl)-1-methyl-4-[(4-thiazol-2-ylphenyl)methyl]pyrrolo[2,3-b]pyridine-6-carboxamide] are 59.6% and 1650 nM.
For the compound `Cn1ccc2c(Cc3ccc(-c4nccs4)cc3)cc(C(=O)NC3CCOCC3(C)C)nc21` (stereo not shown) [Compound 67], the Emax was 61.2% and the concentration giving a half-maximal response (EC50) came to 1390 nM.
The corresponding values for `Cn1ccc2c(Cc3ccc(-c4nccs4)cc3)cc(C(=O)NCC3CCOCC3)nc21` [Compound 68, 1-methyl-N-(tetrahydropyran-4-ylmethyl)-4-[(4-thiazol-2-ylphenyl)methyl]pyrrolo[2,3-b]pyridine-6-carboxamide] are 37.9% and 1450 nM.
On the same counts, the results for `O=C(N[C@H]1CCCC[C@@H]1O)c1cc(Cc2ccc(-n3cccn3)cc2)c2ccsc2n1` [Compound 69, N-[(1S,2S)-2-hydroxycyclohexyl]-4-[(4-pyrazol-1-ylphenyl)methyl]thieno[2,3-b]pyridine-6-carboxamide] are 52.9% and 30 nM.
The corresponding values for `O=C(N[C@H]1CCOC[C@@H]1O)c1cc(Cc2ccc(-n3cccn3)cc2)c2ccsc2n1` [Compound 70] are 47.8% and 10 nM.
Consider `O=C(NC1CCOCC1)c1cc(Cc2ccc(-n3cccn3)cc2)c2ccsc2n1` [Compound 71, 4-[(4-pyrazol-1-ylphenyl)methyl]-N-tetrahydropyran-4-yl-thieno[2,3-b]pyridine-6-carboxamide], for which the maximum response (Emax) was 73.4% and the EC50 was determined as 140 nM.
As to `CC1(C)CC(NC(=O)c2cc(Cc3ccc(-n4cccn4)cc3)c3ccsc3n2)CCO1` (stereo not shown) [Compound 72, N-(2,2-dimethyltetrahydropyran-4-yl)-4-[(4-pyrazol-1-ylphenyl)methyl]thieno[2,3-b]pyridine-6-carboxamide], the maximal effect (Emax) stood at 69% and the EC50 turned out to be 1420 nM.
The corresponding values for `CC1CC(NC(=O)c2cc(Cc3ccc(-n4cccn4)cc3)c3ccsc3n2)CC(C)O1` (stereo not shown) [Compound 73, N-(2,6-dimethyltetrahydropyran-4-yl)-4-[(4-pyrazol-1-ylphenyl)methyl]thieno[2,3-b]pyridine-6-carboxamide] are 68.1% and 370 nM.
As to `CC1(C)COCCC1NC(=O)c1cc(Cc2ccc(-n3cccn3)cc2)c2ccsc2n1` (stereo not shown) [Compound 74, N-(3,3-dimethyltetrahydropyran-4-yl)-4-[(4-pyrazol-1-ylphenyl)methyl]thieno[2,3-b]pyridine-6-carboxamide], the maximal response (Emax) was determined as 69.1% and the 50% effective concentration (EC50) was 1290 nM.
As for `CC1COCCC1NC(=O)c1cc(Cc2ccc(-n3cccn3)cc2)c2ccsc2n1` (stereo not shown) [Compound 75], the Emax came to 60.7% and the concentration giving a half-maximal response (EC50) was 490 nM.
`O=C(NCC1CCOCC1)c1cc(Cc2ccc(-n3cccn3)cc2)c2ccsc2n1` [Compound 76, 4-[(4-pyrazol-1-ylphenyl)methyl]-N-(tetrahydropyran-4-ylmethyl)thieno[2,3-b]pyridine-6-carboxamide]: the Emax worked out at 68.8% and the concentration for a half-maximal effect (EC50) was 420 nM.
The corresponding values for `O=C(N[C@H]1CCOC1)c1cc(Cc2ccc(-n3cccn3)cc2)c2ccsc2n1` [Compound 77, 4-[(4-pyrazol-1-ylphenyl)methyl]-N-[(3S)-tetrahydrofuran-3-yl]thieno[2,3-b]pyridine-6-carboxamide] are 69.6% and 390 nM.
The corresponding values for `O=C(N[C@@H]1CCOC1)c1cc(Cc2ccc(-n3cccn3)cc2)c2ccsc2n1` [Compound 78, 4-[(4-pyrazol-1-ylphenyl)methyl]-N-[(3R)-tetrahydrofuran-3-yl]thieno[2,3-b]pyridine-6-carboxamide] are 68.5% and 1720 nM.
The corresponding values for `O=C(NCC1CCOC1)c1cc(Cc2ccc(-n3cccn3)cc2)c2ccsc2n1` (stereo not shown) [Compound 79, 4-[(4-pyrazol-1-ylphenyl)methyl]-N-(tetrahydrofuran-3-ylmethyl)thieno[2,3-b]pyridine-6-carboxamide] are 65.6% and 2080 nM.

The values are drawn from patent US10899759B2, “Positive allosteric modulators of the muscarinic acetylcholine receptor M1” (Vanderbilt University, priority 2016, dated 2021).
